From the supplement of paper PMC10307832

Tests used:
Assay in all cases: relative viability (nuclei count vs DMSO), 5 days (fraction); higher = more cells survive
[1] = compound: CC1CC(=O)N(C2=CN=C(N=C2N1C3CCCC3)NC4=C(C=C(C=C4)C(=O)NC5CCN(CC5)C)OC)C [NPK76-II-72-1] + O=C(c1cc(Cc2n[nH]c(=O)c3ccccc23)ccc1F)N1CCN(C(=O)C2CC2)CC1 [Olaparib] (partner 8 µM)
Method in brief: (§1)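 Values are medians from duplicate plates. Each reflects relative viability, defined as the nuclei count of treated wells over that of vehicle wells. Lung cancer cell lines in 1536-well plates were pin-tool dosed one day after seeding with one drug alone or with a fixed anchor-drug dose plus five library-drug doses (not always all listed) in √10 steps, then fixed, stained and imaged at 4× after 5 days.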

[2] = compound: CC[C@@H]1C(=O)N(C)c2cnc(Nc3ccc(C(=O)NC4CCN(C)CC4)cc3OC)nc2N1C1CCCC1 [BI-2536] + CC(=O)c1c(C)c2cnc(Nc3ccc(N4CCNCC4)cn3)nc2n(C2CCCC2)c1=O [Palbociclib] (partner 0.5 µM)
Method in brief: as §1

[3] = compound: CC[C@@H]1C(=O)N(C)c2cnc(Nc3ccc(C(=O)NC4CCN(C)CC4)cc3OC)nc2N1C1CCCC1 [BI-2536] + CC1(C)CCC(c2ccc(Cl)cc2)=C(CN2CCN(c3ccc(C(=O)NS(=O)(=O)c4ccc(N[C@H](CCN5CCOCC5)CSc5ccccc5)c(S(=O)(=O)C(F)(F)F)c4)cc3)CC2)C1 [Navitoclax] (partner 0.5 µM)
Method in brief: as §1

[4] = compound: CC[C@@H]1C(=O)N(C)c2cnc(Nc3ccc(C(=O)NC4CCN(C)CC4)cc3OC)nc2N1C1CCCC1 [BI-2536] + CS(=O)(=O)CCNCc1ccc(-c2ccc3ncnc(Nc4ccc(OCc5cccc(F)c5)c(Cl)c4)c3c2)o1 [Lapatinib] (partner 2 µM)
Method in brief: as §1

Q: How did the relative viability ([1]; first compound 0.01 µM) turn out when UMC-11 was run?
A: 0.381

Q: And the relative viability ([1]; first compound 0.03162 µM)?
A: 0.339

Q: What about the relative viability ([1]; first compound 0.1 µM) of the same cell line?
A: 0.386

Q: And the relative viability ([1]; first compound 0.3162 µM)?
A: 0.358

Q: What about the relative viability ([1]; first compound 1 µM) of the same cell line?
A: 0.403

Q: And the relative viability ([2]; first compound 0.01 µM)?
A: 0.295

Q: And the relative viability ([2]; first compound 0.03162 µM)?
A: 0.295

Q: What about the relative viability ([2]; first compound 0.1 µM) of the same cell line?
A: 0.228

Q: And the relative viability ([2]; first compound 0.3162 µM)?
A: 0.223

Q: And the relative viability ([2]; first compound 1 µM)?
A: 0.23

Q: And the relative viability ([3]; first compound 0.01 µM)?
A: 0.279

Q: And the relative viability ([3]; first compound 0.03162 µM)?
A: 0.286

Q: What about the relative viability ([3]; first compound 0.1 µM) of the same cell line?
A: 0.166

Q: And the relative viability ([3]; first compound 0.3162 µM)?
A: 0.136

Q: What about the relative viability ([3]; first compound 1 µM) of the same cell line?
A: 0.112

Q: And the relative viability ([4]; first compound 0.01 µM)?
A: 1.02

Q: And the relative viability ([4]; first compound 0.03162 µM)?
A: 0.765

Q: What about the relative viability ([4]; first compound 0.1 µM) of the same cell line?
A: 0.132

Q: What about the relative viability ([4]; first compound 0.3162 µM) of the same cell line?
A: 0.17

Q: What about the relative viability ([4]; first compound 1 µM) of the same cell line?
A: 0.18
